# From US20170107579A1, “E1 ENZYME MUTANTS AND USES THEREOF” (Millennium Pharmaceuticals, Inc., priority 2011, published 2017)
# How the values were obtained:
# [1] = tested on: HCT-116 WT, HCT-116.1 A171T and HCT-116.4 C324Y cells; test: Drug efflux inhibitor co-incubation, ATPlite viability assay; type: cell-based
# Procedure: Treatment of cells with efflux inhibitors. FIG. 8A. […] Co-incubation studies were performed with various inhibitors of drug efflux at their highest non toxic concentration.
# Diypridamole (Sigma), MK571 (Tocris), GF918, K0143 (Tocris) and LY5979 were obtained from commercial sources indicated.
# [2] = target: T1, UBA3 variant with A171T mutation (NAE) (Homo sapiens, UniProt Q8TBC4, A171T); test: NAE HTRF assay, IC50 at KM for ATP (120 μM); type: biochemical; details: for IC50: UBA3 A171T mutant, HTRF assay at KM for ATP, 120 μM; for A171T/WT: ratio of IC50 A171T mutant to IC50 wild type
# T1 construct: His; made in house; host or cells: E. coli Rosetta (DE3), co-expression
# Procedure: (§1) The enzyme reversibility assay was run in the FLAG-NEDD8-GST-UBC12 HTRF transthiolation assay described previously (Soucy et al., 2009, Brownell et al., 2010). Final concentrations of each enzyme after dilution were 10 pM WT NAEβ, 12.5 pM A171T NAEβ, 30 pM N209K NAEβ, and 33 pM E204K/G201V NAEβ.
# (§2) IC50 measurements were performed in the HTRF assay described in Example 6. Assays for each enzyme were performed at their KM for ATP (20 μM for wild type, 120 μM for the A171T mutant).
# (§3) An NAE enzymatic reaction totals 50 μL and contains 50 mM HEPES (pH 7.5), 0.05% BSA, 5 mM MgCl2, 20 μM ATP, 250 μM GSH, 0.01 μM UBC12-GST, 0.075 NEDD8-Flag and 0.28 nM recombinant human NAE enzyme. The enzymatic reaction mixture, with and without compound inhibitor, is incubated at 24° C. for 90 minutes in a 384-well plate before termination with 25 μL of Stop/Detection buffer (0.1M HEPES pH 7.5, 0.05% Tween20, 20 mM EDTA, 410 mM KF, 0.53 nM Europium-Cryptate labeled monoclonal anti-FLAG M2 antibody (CisBio International) and 8.125 μg/mL PHYCOLINK goat anti-GST allophycocyanin (XL-APC) antibody (Prozyme)). After incubation for 3 hours at 24° C., quantification of the FRET is performed on the Analyst™ HT 96.384 (Molecular Devices).
# wild type UBA3 (NAE) = target: T2, wild type UBA3 (NAE) (Homo sapiens, UniProt Q8TBC4); test: NAE HTRF assay, IC50 at KM for ATP (20 μM); type: biochemical; details: read-out: NAE WT IC50
# T2 construct: His; made in house; host or cells: E. coli Rosetta (DE3), co-expression
# Procedure: as §1, §2, §3
# HCT-116 xenografts (WT) = test: Antitumor study, subcutaneous xenografts in nude rats; type: in vivo
# Procedure: (§4) Female NCr Nude rats (Taconic Farms) aged 6-8 weeks were inoculated with 10×10^6 HCT-116 cells subcutaneously in the right flank. Tumor growth was measured using digital vernier calipers. […] Rats received one dose per day biweekly for 2 weeks (days 1, 4, 8, and 11) of a 21-day therapy cycle. After three cycles of treatment refractory tumors were collected. Female CB-17 SCID mice (Charles River Laboratories) aged 6-8 weeks were inoculated with 2×10^6 THP-1 or OCI-Ly10 cells with Matrigel™ support (1:1, v/v). […] Mice received two doses per day bi-weekly (days 1, 4, 8, 11, 15, 18, 22 . . . ) until tumors reached approximately 500-800 mm^3. Tumors were then collected and one 40-50 mg piece of tumor was subcutaneously implanted using a 13 gauge trocar needle into 6 to 8 naïve animals for further study. In addition tumor DNA was extracted for mutational analysis as described in supplementary information.
# [3] = as above; type: in vivo; details: female, NCr Nude, rat, in vivo, sc; immunocompromised rats, subcutaneously, days 1, 4, 8 and 11 of a 21 day cycle; read-out: maximum tolerated dose
# Procedure: as §4
# NCI-H460 cells = test: Cell viability assay, 96 hours ATPlite; type: cell-based; details: Homo sapiens, NCI-H460 parental cells
# Procedure: (§5) Cell line cultures were maintained using appropriate cell culture media as recommended by ATCC and as previously reported (Soucy et al., 2009, Milhollen et al., 2010). […] Cell viability assays completed using 96 hours ATPlite assay (PerkinElmer) as previously reported (Soucy et al., 2009).
# HCT-116 cells = test: Cell viability assay, 96 hours ATPlite; type: cell-based; details: Homo sapiens, HCT-116 parental cells
# Procedure: as §5
# Calu-6 cells = test: Cell viability assay, 96 hours ATPlite; type: cell-based; details: Homo sapiens, Calu-6 parental cells
# Procedure: as §5
# [4] = tested on: NEDD8-cullin levels in A171T THP-1 xenografts; test: Pharmacodynamic marker analysis in tumor xenografts; type: in vivo, mouse; details: single dose 90 mg/kg
# Text: (§6) The relative levels of NEDD8-cullin and pIxBa were estimated by quantitative immunoblot analysis (Li-cor Odyssey system) using Alexa680-labelled anti-IgG (Molecular Probes) as the secondary antibody. For the analysis of CDT1 and cleaved caspase-3 levels in tumor sections, formalin-fixed, paraffin-embedded tumour sections were stained with the relevant antibodies, amplified with HRP-labelled secondary antibodies and detected with the ChromoMap DAB Kit (Ventana Medical Systems). Slides were counterstained with haematoxylin. Images were captured using an Eclipse E800 microscope (Nikon Instruments) and Retiga EXi colour digital camera (QImaging) and processed using Metamorph software (Molecular Devices). CDT1 and cleaved caspase-3 are expressed as a function of the DAB signal area.
# A171T HCT-116 xenografts = test: Antitumor study, re-transplanted resistant xenograft in nude rats; type: in vivo, rat; details: A171T HCT-116 xenograft, one cycle of 150 mg/kg (days 1, 4, 8, 11)
# Procedure: as §4
# The A171T NAEβ mutation was still present in this resistant xenograft model as confirmed by both Sanger and Sequenom methodologies.
# [5] = tested on: E204G OCI-Ly10 xenografts; test: Antitumor study, re-implanted resistant xenograft in SCID mice; type: in vivo, mouse; details: re-implanted E204G OCI-Ly10 tumor, 90 mg/kg BID
# Procedure: as §4
# THP-1 AML xenografts = test: Antitumor study, subcutaneous xenografts in CB-17 SCID mice; type: in vivo, mouse; details: THP-1 xenografts, 90 mg/kg BID, biweekly
# Procedure: as §4
# [6] = tested on: OCI-Ly10 DLBCL xenografts; test: as above; type: in vivo, mouse; details: 90 mg/kg BID bi-weekly
# Procedure: as §4
# [7] = tested on: NEDD8-cullin levels in HCT-116 WT and A171T xenografts; test: Pharmacodynamic marker analysis in tumor xenografts; type: in vivo, rat; details: single dose of 150 mg/kg
# Text: as §6
# The digests were analyzed on a LC/MS/MS system as previously described (Brownell et al., 2010).
# [8] = tested on: HCT-116 WT, A171T and G201V cells; test: Cell cycle analysis (propidium iodide, flow cytometry); type: cell-based; details: HCT-116 resistant A171T and G201V clones, 1 μM, 24 hours
# Procedure: Cell cycle analysis. FIG. 11A. HCT-116 WT, FIG. 11B. HCT-116.1 A171T and FIG. 11C.
# Logarithmically growing cells were incubated with either MLN4924 or DMSO for the times indicated. Collected cells were fixed in 70% ethanol and stored overnight at 4° C. Fixed cells were centrifuged to remove ethanol, and the pellets were resuspended in propidium iodide and RNaseA in PBS for 1 h on ice protected from light. Cell-cycle distributions were determined using flow cytometry (FACS Calibur, Becton Dickinson) and analysed using Winlist software (Verity).
# [9] = tested on: NEDD8 pathway (NEDD8-cullin, NEDD8-NAEβ, NEDD8-Ubc12, CDT1, NRF2); test: Western blot pathway analysis of treated cells; type: cell-based
# Procedure: Whole cell extracts were prepared and immunoblotting assays performed as previously described (Soucy, 2009) with primary antibodies as follows: CDT1, NRF2, NEDD8, NAEβ, UBC12 and 4924-NEDD8-ADS (MIL22) (Millennium); UBC10 (Boston Biochem); K48 (Millipore); NAE1 (sigma) and tubulin (Santa Cruz). Secondary Alexa-680-labelled antibodies to rabbit/mouse IgG (Molecular Probes) were used as appropriate and blots were imaged using the Li-Cor Odyssey Infared Imaging system.
# The reduced effect on NAE inhibition was confirmed by a reduced accumulation of two CRL substrates, Nrf2 and Cdt1.
# [10] = tested on: MLN4924 resistant HCT-116 cell clones; test: Cell viability assay, 96 hours ATPlite, resistant clones; type: cell-based
# Procedure: HCT-116 cells and resistant clones were treated with DMSO or various concentrations of FIG. 7A. bortezomib, FIG. 7B. doxorubicin or FIG. 7C. SN-38 for 96 hours and cell viability was assessed with ATPlite assay.
# as §5
# [11] = tested on: MLN4924 resistant Calu-6 clone; test: Cell viability assay, 96 hours ATPlite, resistant clone; type: cell-based; details: Homo sapiens; one Calu-6 resistant clone
# Procedure: (§7) FIG. 6A. Calu-6 and FIG. 6B.
# as §5
# A573D UBA6 = target: T3, A573D UBA6 (Homo sapiens, UniProt A0AVT1, A573D); test: UBA6 pyrophosphate exchange assay; type: biochemical; details: A573D UBA6 5 nM, 1 mM ATP, 4 μM ubiquitin
# T3 construct: His6 (N); made in house; host or cells: Sf9 insect cells (baculovirus, single infection)
# Procedure: (§8) ATP and PPi titrations were run under similar condition, except ubiquitin was fixed at 4 μM. […] ATP standard curve.
# (§9) Reactions were initiated with addition of 4 μM ubiquitin.
# wild-type UBA6 = target: T4, wild-type UBA6 (Homo sapiens, UniProt A0AVT1); test: UBA6 pyrophosphate exchange assay; type: biochemical; details: wt UBA6 5 nM, 1 mM ATP, 4 μM ubiquitin, 60 minutes at 30° C.
# T4 construct: His6 (N); made in house; host or cells: Sf9 insect cells (baculovirus, single infection)
# Procedure: as §8, §9
# A573T UBA6 = target: T5, A573T UBA6 (Homo sapiens, UniProt A0AVT1, A573T); test: UBA6 pyrophosphate exchange assay; type: biochemical; details: A573T UBA6 5 nM, 1 mM ATP, 4 μM ubiquitin
# T5 construct: His6 (N); made in house; host or cells: Sf9 insect cells (baculovirus, single infection)
# Procedure: as §8, §9
# A171T THP-1 xenografts = test: Antitumor study, re-established resistant xenograft in SCID mice; type: in vivo, mouse; details: A171T THP-1 xenograft, 90 mg/kg BID bi-weekly
# Procedure: as §4
# The subcutaneous model was utilized to facilitate harvesting tumors for subsequent analysis. […] Three THP-1 xenografts contained a heterozygous mutation in NAEB at A171T, one contained a heterozygous mutation in at N209D and the remaining two were wild type for NAEB and so may be refractory through an alternate mechanism (FIG. 14A and Table 6).
# [12] = tested on: MLN4924 resistant NCI-H460 clones; test: Cell viability assay, 96 hours ATPlite, resistant clones; type: cell-based; details: Homo sapiens; two NCI-H460 resistant clones
# Procedure: as §7, §5
# T1 sequence (Q8TBC4 whole entry A171T): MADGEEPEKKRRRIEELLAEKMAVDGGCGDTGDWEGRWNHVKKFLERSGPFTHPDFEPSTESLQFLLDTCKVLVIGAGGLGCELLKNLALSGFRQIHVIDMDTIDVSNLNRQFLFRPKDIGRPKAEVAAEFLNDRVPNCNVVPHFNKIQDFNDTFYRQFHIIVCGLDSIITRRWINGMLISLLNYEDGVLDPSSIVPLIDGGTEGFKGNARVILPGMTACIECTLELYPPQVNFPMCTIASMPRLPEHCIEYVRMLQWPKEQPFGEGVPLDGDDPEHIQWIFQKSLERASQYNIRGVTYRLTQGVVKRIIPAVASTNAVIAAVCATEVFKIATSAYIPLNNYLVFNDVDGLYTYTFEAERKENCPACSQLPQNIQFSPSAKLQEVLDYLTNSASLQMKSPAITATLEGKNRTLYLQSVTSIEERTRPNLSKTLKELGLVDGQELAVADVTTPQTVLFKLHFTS
# T1 sequence (Q13564 whole entry partner): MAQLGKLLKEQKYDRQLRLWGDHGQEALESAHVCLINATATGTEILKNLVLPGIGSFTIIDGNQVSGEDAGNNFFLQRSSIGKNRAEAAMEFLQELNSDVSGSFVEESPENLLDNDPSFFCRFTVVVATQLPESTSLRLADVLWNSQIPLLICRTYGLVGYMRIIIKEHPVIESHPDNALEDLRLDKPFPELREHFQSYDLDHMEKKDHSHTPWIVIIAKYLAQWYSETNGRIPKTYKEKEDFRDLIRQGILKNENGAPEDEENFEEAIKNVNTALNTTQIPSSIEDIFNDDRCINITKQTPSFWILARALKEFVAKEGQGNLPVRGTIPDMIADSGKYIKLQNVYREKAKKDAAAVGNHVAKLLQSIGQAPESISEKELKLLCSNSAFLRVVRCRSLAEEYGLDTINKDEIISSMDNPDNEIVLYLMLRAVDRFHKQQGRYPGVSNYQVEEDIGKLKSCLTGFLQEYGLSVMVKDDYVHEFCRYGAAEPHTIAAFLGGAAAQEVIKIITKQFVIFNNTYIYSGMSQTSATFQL
# T1 sequence (Q15843 1-76 partner limits assumed): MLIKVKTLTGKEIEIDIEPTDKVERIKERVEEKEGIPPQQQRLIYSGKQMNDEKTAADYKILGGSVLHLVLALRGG
# T2 sequence (Q8TBC4 whole entry): as the sequence (Q8TBC4 whole entry A171T) above, with T171A counted along it
# T2 sequence (Q13564 whole entry partner): as the sequence (Q13564 whole entry partner) above
# T2 sequence (Q15843 1-76 partner limits assumed): as the sequence (Q15843 1-76 partner limits assumed) above
# T5 sequence (A0AVT1 whole entry A573T): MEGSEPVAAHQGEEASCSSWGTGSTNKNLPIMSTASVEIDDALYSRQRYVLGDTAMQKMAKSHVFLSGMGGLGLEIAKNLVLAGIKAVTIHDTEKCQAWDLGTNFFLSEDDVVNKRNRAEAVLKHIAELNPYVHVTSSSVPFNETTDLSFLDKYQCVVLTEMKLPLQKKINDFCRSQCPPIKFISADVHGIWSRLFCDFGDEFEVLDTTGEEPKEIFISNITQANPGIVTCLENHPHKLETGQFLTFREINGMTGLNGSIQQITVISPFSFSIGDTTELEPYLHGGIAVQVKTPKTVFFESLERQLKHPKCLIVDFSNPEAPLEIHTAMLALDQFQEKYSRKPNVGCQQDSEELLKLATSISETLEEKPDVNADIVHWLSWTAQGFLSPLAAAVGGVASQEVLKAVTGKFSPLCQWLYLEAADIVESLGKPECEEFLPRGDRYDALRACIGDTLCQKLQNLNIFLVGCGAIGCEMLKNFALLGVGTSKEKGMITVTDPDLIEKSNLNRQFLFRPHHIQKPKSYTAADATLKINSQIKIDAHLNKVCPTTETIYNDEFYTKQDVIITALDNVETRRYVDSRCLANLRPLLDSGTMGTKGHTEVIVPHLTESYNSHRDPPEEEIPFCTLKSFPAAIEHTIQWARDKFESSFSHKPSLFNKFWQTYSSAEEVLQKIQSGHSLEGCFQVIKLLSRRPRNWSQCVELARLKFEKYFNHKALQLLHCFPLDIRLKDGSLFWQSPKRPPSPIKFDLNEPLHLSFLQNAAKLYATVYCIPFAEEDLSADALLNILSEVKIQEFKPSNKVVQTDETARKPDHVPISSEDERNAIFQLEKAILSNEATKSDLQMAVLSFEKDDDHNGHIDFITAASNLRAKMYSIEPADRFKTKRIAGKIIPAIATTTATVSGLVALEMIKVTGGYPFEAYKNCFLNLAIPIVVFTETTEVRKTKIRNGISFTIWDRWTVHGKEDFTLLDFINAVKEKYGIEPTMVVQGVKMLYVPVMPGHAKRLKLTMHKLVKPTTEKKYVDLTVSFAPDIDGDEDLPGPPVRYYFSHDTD
# T4 sequence (A0AVT1 whole entry): as the sequence (A0AVT1 whole entry A573T) above, with T573A counted along it
# T3 sequence (A0AVT1 whole entry A573D): as the sequence (A0AVT1 whole entry A573T) above, with T573D counted along it
smiles,measurement,setting,value
COc1ccc2c3c([nH]c2c1)[C@H](CC(C)C)N1C(=O)[C@H](CCC(=O)OC(C)(C)C)NC(=O)[C@@H]1C3 [Compound K0143],"sensitization of cells to MLN4924 by Pgp, BCRP and MRP2 inhibitors","[1]; co-treatment with MLN4924, 96 hours",did not sensitize
NS(=O)(=O)OCC1OC(n2cnc3c(NCc4ccccc4)ncnc32)C(O)C1O (centres unmarked) [Compound I-6],IC50,[2],84 nM
same,A171T/WT,[2],115
same,IC50,wild type UBA3 (NAE),0.73 nM
"NS(=O)(=O)OC[C@@H]1C[C@@H](n2ccc3c(N[C@H]4CCc5ccccc54)ncnc32)C[C@@H]1O [MLN4924, ((1S,2S,4R)-4-{4-[(1S)-2,3-dihydro-1H-inden-1-ylamino]-7H-pyrrolo[2,3-d]pyrimidin-7-yl}-2-hydroxycyclopentyl)methyl sulphamate]",MLN4924 activity on co-incubation with drug efflux inhibitors,"[1]; efflux inhibitors at highest non toxic concentration, 96 hours",unaffected
same,antitumor effect,"HCT-116 xenografts (WT); WT HCT-116 xenografts, after first cycle, 150 mg/kg s.c.",tumor regressions
same,tumor growth inhibition,"HCT-116 xenografts (WT); wild type HCT-116 xenografts, one cycle of 150 mg/kg (days 1, 4, 8, 11)",94%
same,MTD,[3],150 mg/kg
same,EC50,NCI-H460 cells,1070 nM
same,EC50,HCT-116 cells,46 nM
same,EC50,Calu-6 cells,80 nM
same,inhibition of NEDD8-cullin levels,[4],minimal inhibition
same,tumor growth inhibition,A171T HCT-116 xenografts,38%
same,antitumor effect,[5],resistant
same,antitumor effect,THP-1 AML xenografts,uniform tumor regressions
same,antitumor effect,[6],tumor regressions
same,time of maximal inhibition of NEDD8-cullin levels post-dose,[7]; A171T HCT-116 resistant model,8 h
same,time of maximal inhibition of NEDD8-cullin levels post dose,[7]; WT HCT-116 xenografts,1 h
same,cell cycle distribution,[8],not significantly altered
same,"inhibition of NEDD8 conjugation to NAEB, UBC12 and the cullin proteins",[9]; HCT-116 A171T and G201V clones compared to WT cells,reduced effect of inhibition
same,effect on the neddylation pathway and CRL substrate accumulation,[9]; NCI-H460 A171D and Calu-6 N209K clones,reduced potency
same,EC50,"[10]; Homo sapiens, four HCT-116 resistant clones",> 10 µM
same,EC50,[11],> 10 µM
same,IC50,A573D UBA6,> 100 µM
same,IC50,wild-type UBA6,6.2 ± 0.8 µM
same,IC50,A573T UBA6,> 100 µM
same,antitumor effect,A171T THP-1 xenografts,resistant
same,EC50,[12],> 10 µM
CC(C)C[C@H](NC(=O)[C@H](Cc1ccccc1)NC(=O)c1cnccn1)B(O)O [bortezomib],sensitivity of MLN4924 resistant clones to other chemotherapies,"[10]; HCT-116 resistant clones, 96 hours ATPlite",remained sensitive
Cc1ncnc2c1ccn2[C@@H]1C[C@@H](COS(N)(=O)=O)[C@@H](O)C1 [Compound I-46],IC50,[2],250 nM
same,A171T/WT,[2],7
same,IC50,wild type UBA3 (NAE),37 nM
